The values below are quoted from earlier work in patent publication US11851709B2, “HER2 as a predictor of response to dual HER2 blockade in the absence of cytotoxic therapy” (FUNDACIÓ PRIVADA INSTITUT D'INVESTIGACIÓ ONCOLÓGICA DE VALL …, priority 2016, dated 2023).

The test system of data set [1] is node-positive breast cancer. The settings on record: interaction between HER2 positivity and addition of paclitaxel; P=0.01.
For a further data set, the system named is HER2+ breast cancer. The settings on record: at 4.5-years; added to adjuvant trastuzumab and chemotherapy; statistically non-significant.

`CC(=O)O[C@H]1C(=O)[C@@]2(C)[C@H]([C@H](OC(=O)c3ccccc3)[C@]3(O)C[C@H](OC(=O)[C@H](O)[C@@H](NC(=O)c4ccccc4)c4ccccc4)C(C)=C1C3(C)C)[C@]1(OC(C)=O)CO[C@@H]1C[C@@H]2O` [paclitaxel]: the “hazard ratio for recurrence” value in data set [1] is 0.59.

Turning to `CS(=O)(=O)CCNCc1ccc(-c2ccc3ncnc(Nc4ccc(OCc5cccc(F)c5)c(Cl)c4)c3c2)o1` [lapatinib], in the data set with HER2+ breast cancer, the “absolute benefit in DFS” value was about 2%.
